Test results as given in ChEMBL document CHEMBL5325422, “Design and synthesis of fascaplysin derivatives as inhibitors of FtsZ with potent antibacterial activity and mechanistic study” (Eur J Med Chem, 2023).
≈ marks a conversion by molar mass, not a printed value. Calls of active or inactive are those of the source. The rule behind the calls is not given here.

Key:
[1] = test system: Staphylococcus aureus; test: Antibacterial activity against methicillin-resistant Staphylococcus aureus ATCC43300 assessed as filamentation on cell surface at 4 times MIC incubated for 2 hrs by SEM analysis; format: functional, organism-based
[2] = test system: Staphylococcus aureus; test: Antibacterial activity against methicillin-resistant Staphylococcus aureus ATCC43300 assessed as bacterial growth inhibition incubated for 18 to 24 hrs by microbroth dilution method; format: functional; conditions: time 18-24 hrs
[3] = test system: Bacillus subtilis; test: Antibacterial activity against Bacillus subtilis BNCC336690 assessed as bacterial growth inhibition incubated for 18 to 24 hrs by microbroth dilution method; format: functional; conditions: time 18-24 hrs
[4] = test system: Streptococcus pneumoniae; test: Antibacterial activity against Streptococcus pneumoniae ATCC49619 assessed as bacterial growth inhibition incubated for 18 to 24 hrs by microbroth dilution method; format: functional; conditions: time 18-24 hrs
[5] = test system: Escherichia coli; test: Antibacterial activity against penicillin-susceptible Escherichia coli ATCC25922 assessed as bacterial growth inhibition incubated for 18 to 24 hrs by microbroth dilution method; format: functional; conditions: time 18-24 hrs
[6] = test system: Staphylococcus aureus; test: Antibacterial activity against methicillin-resistant Staphylococcus aureus ATCC43300 assessed as log10 CFU reduction at 1 to 4 times MIC measured after 4 hrs by time-killing assay; format: functional
[7] = test system: Staphylococcus aureus; test: Antibacterial activity against drug-resistant Staphylococcus aureus ATCC43300 assessed as inhibition of resistance development at 0.5 times MIC after 25 passages incubated for 18 to 24 hrs by microbroth dilution method; format: functional, organism-based; conditions: time 18-24 hrs
[8] = test system: Staphylococcus aureus; test: Antibacterial activity against methicillin-resistant Staphylococcus aureus ATCC43300 assessed as wrinkling cell surface at 4 times MIC incubated for 2 hrs by SEM analysis; format: functional, organism-based
[9] = target: T1, Cell division protein FtsZ (Escherichia coli K-12) (UniProt P0A9A6); test: Inhibition of recombinant Escherichia coli FtsZ expressed in Escherichia coli BL21 assessed as induction of FtsZ polymerization at 4 ug/ml incubated for 10 mins by light scattering assay; conditions: dose 4.0 µg/ml
T1 sequence (whole entry): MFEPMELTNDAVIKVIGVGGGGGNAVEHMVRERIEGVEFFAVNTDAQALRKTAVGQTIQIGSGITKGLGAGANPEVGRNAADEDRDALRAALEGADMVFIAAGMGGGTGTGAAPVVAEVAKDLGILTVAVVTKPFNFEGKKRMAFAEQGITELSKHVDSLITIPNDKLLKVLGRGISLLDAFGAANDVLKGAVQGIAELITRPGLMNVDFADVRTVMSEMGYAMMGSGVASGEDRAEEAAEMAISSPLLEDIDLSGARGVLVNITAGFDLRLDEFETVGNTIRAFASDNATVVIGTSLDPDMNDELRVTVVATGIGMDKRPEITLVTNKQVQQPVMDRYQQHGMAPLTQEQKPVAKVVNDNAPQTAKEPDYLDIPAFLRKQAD

[10] = test system: Bacillus subtilis; test: Antibacterial activity against Bacillus subtilis BNCC336690 assessed as increase in cell length at 0.5 times MIC incubated for 4 hrs by microscopic analysis; format: functional, organism-based
[11] = target: T1, Cell division protein FtsZ (Escherichia coli K-12); test: Inhibition of recombinant Escherichia coli FtsZ expressed in Escherichia coli BL21 assessed as induction of FtsZ polymerization incubated for 10 mins by light scattering assay; conditions: dose 1-4 µg/ml
[12] = target: T1, Cell division protein FtsZ (Escherichia coli K-12); test: Inhibition of recombinant Escherichia coli FtsZ expressed in Escherichia coli BL21 assessed as bundling of FtsZ filaments at 4 ug/ml incubated for 10 mins by TEM analysis; conditions: dose 4.0 µg/ml
[13] = target: T1, Cell division protein FtsZ (Escherichia coli K-12); test: Inhibition of recombinant Escherichia coli FtsZ expressed in Escherichia coli BL21 assessed as reduction in GTPase activity incubated for 30 mins by malachite green phosphate staining based assay; conditions: dose 0.02-0.64 µg/ml
[14] = Hemolytic activity in human erythrocytes assessed as release of hemoglobin level at 12.5 ug/ml incubated for 1 hr by absorbance based assay relative to control; format: toxicity, cell-based, Erythrocyte; conditions: at 12.5 µg/mL, read-out: Activity
[15] = Cytotoxicity against mouse RAW264.7 cells assessed as cell survival at 12.5 ug/ml incubated for 24 hrs by CCK8 assay relative to control; format: toxicity, cell-based; conditions: at 12.5 µg/mL, read-out: Activity
[16] = Cytotoxicity against mouse RAW264.7 cells assessed as cell survival at 25 ug/ml incubated for 24 hrs by CCK8 assay relative to control; format: toxicity, cell-based; conditions: at 25 µg/mL, read-out: Activity
[17] = Cytotoxicity against mouse RAW264.7 cells assessed as cell survival at 50 ug/ml incubated for 24 hrs by CCK8 assay relative to control; format: toxicity, cell-based; conditions: at 50 µg/mL, read-out: Activity
[18] = test system: Staphylococcus aureus; test: Antibacterial activity against methicillin-resistant Staphylococcus aureus ATCC43300 assessed as log10 CFU reduction at MIC measured for 1 hr by time-killing assay; format: functional
[19] = test system: Staphylococcus aureus; test: Antibacterial activity against methicillin-resistant Staphylococcus aureus ATCC43300 assessed as log10 CFU reduction at 2 to 4 times MIC measured for 0.5 hrs by time-killing assay; format: functional
[20] = test system: RAW264.7; test: Cytotoxicity against mouse RAW264.7 cells >12.5 ug/ml incubated for 24 hrs by CCK8 assay; format: toxicity, cell-based; conditions: raw264.7, 24 h, dose > 12.5 µg/ml
[21] = target: T1, Cell division protein FtsZ (Escherichia coli K-12); test: Inhibition of recombinant Escherichia coli FtsZ expressed in Escherichia coli BL21 assessed as reduction in GTPase activity at 0.32 ug/ml incubated for 30 mins by malachite green phosphate staining based assay relative to control; conditions: dose 0.32 µg/ml
[22] = test system: Staphylococcus aureus; test: Antibacterial activity against methicillin-resistant Staphylococcus aureus ATCC43300 assessed as bacterial count reduction at 2 times MIC measured after 10 hrs by time-killing assay; format: functional, organism-based
[23] = test system: Staphylococcus aureus; test: Antibacterial activity against methicillin-resistant Staphylococcus aureus ATCC43300 assessed as log10 CFU reduction at 1 to 4 times MIC measured for 1 hr by time-killing assay; format: functional
[24] = test system: Staphylococcus aureus; test: Inhibition of biofilm formation in methicillin-resistant Staphylococcus aureus ATCC43300 incubated for 24 hrs by crystal violet staining based assay; format: functional, organism-based; conditions: dose 0.012-12.5 µg/ml
[25] = test system: Staphylococcus aureus; test: Inhibition of biofilm formation in methicillin-resistant Staphylococcus aureus ATCC43300 at 0.012 ug/ml incubated for 24 hrs by crystal violet staining based assay relative to control; format: functional
[26] = test system: Staphylococcus aureus; test: Inhibition of biofilm formation in methicillin-resistant Staphylococcus aureus ATCC43300 at 0.024 ug/ml incubated for 24 hrs by crystal violet staining based assay relative to control; format: functional
[27] = test system: Staphylococcus aureus; test: Inhibition of biofilm formation in methicillin-resistant Staphylococcus aureus ATCC43300 at 0.049 ug/ml incubated for 24 hrs by crystal violet staining based assay relative to control; format: functional

Compound	MIC [2] [µg/mL]	MIC [3] [µg/mL]	MIC [4] [µg/mL]	MIC [5] [µg/mL]	other results
Cc1cccc(NC(=O)c2ccc3[nH]c4c5[n+](ccc4c3c2)-c2ccccc2C5=O)c1.[Br-]	0.098	0.049	0.098	> 200	Activity [1]: Active; Activity [6]: 2 log10CFU/ml; inhibition [7]: inactive; Activity [8]: Active; inhibition [9]: Active; Activity [10]: Active; inhibition [11]: Dose-Dependent Effect; inhibition [12]: Active; inhibition [13]: Dose-Dependent Effect; hemolysis at 1 h, 12.5 ug/ml [14]: 0%; viability at 24 h, 12.5 ug/ml [15]: 104%; viability at 24 h, 25 ug/ml [16]: 106%; viability at 24 h, 50 ug/ml [17]: 101%
Cc1ccccc1NC(=O)c1ccc2[nH]c3c4[n+](ccc3c2c1)-c1ccccc1C4=O.[Br-]	25	12.5	50	> 200	
CCCCCCNC(=O)c1ccc2[nH]c3c4[n+](ccc3c2c1)-c1ccccc1C4=O.[Br-]	0.39	0.39	0.39	> 200	
O=C(Nc1ccccc1)c1ccc2[nH]c3c4[n+](ccc3c2c1)-c1ccccc1C4=O.[Br-]	12.5	6.25	6.25	> 200	
O=C(O)c1cn(C2CC2)c2cc(N3CCNCC3)c(F)cc2c1=O [CIPROFLOXACIN]	0.78 (≈ 2.35 µM)	0.195 (≈ 0.589 µM)	0.195 (≈ 0.589 µM)	0.195 (≈ 0.589 µM)	
Cc1ccc(NC(=O)c2ccc3[nH]c4c5[n+](ccc4c3c2)-c2ccccc2C5=O)cc1.[Br-]	0.78	0.195	0.39	> 200	
CCCCNC(=O)c1ccc2[nH]c3c4[n+](ccc3c2c1)-c1ccccc1C4=O.[Br-]	6.25	3.12	3.12	> 200	
COc1ccccc1NC(=O)c1ccc2[nH]c3c4[n+](ccc3c2c1)-c1ccccc1C4=O.[Br-]	0.049	0.024	0.049	> 200	Activity [1]: Active; Activity [18]: 2 log10CFU/ml; Activity [19]: 2 log10CFU/ml; inhibition [7]: inactive; Activity [8]: Active; Activity [10]: Active; inhibition [11]: Dose-Dependent Effect; inhibition [12]: Active; inhibition [13]: Dose-Dependent Effect; hemolysis at 1 h, 12.5 ug/ml [14]: 0%; viability at 24 h, 12.5 ug/ml [15]: 14.6%; viability at 24 h, 25 ug/ml [16]: 12.8%; viability at 24 h, 50 ug/ml [17]: 13.2%; Activity [20]: Toxic
CC(C)c1ccc(NC(=O)c2ccc3[nH]c4c5[n+](ccc4c3c2)-c2ccccc2C5=O)cc1.[Br-]	0.195	0.049	0.049	> 200	
CC(C)c1cccc(NC(=O)c2ccc3[nH]c4c5[n+](ccc4c3c2)-c2ccccc2C5=O)c1.[Br-]	0.098	0.098	0.049	> 200	Activity [1]: Active; Activity [6]: 2 log10CFU/ml; inhibition [7]: inactive; Activity [8]: Active; Activity [10]: Active; inhibition [11]: Dose-Dependent Effect; inhibition [12]: Active; inhibition [13]: Dose-Dependent Effect; inhibition [21]: 40%; hemolysis at 1 h, 12.5 ug/ml [14]: 0%; viability at 24 h, 12.5 ug/ml [15]: 98.8%; viability at 24 h, 25 ug/ml [16]: 100%; viability at 24 h, 50 ug/ml [17]: 98.2%
COc1ccc(NC(=O)c2ccc3[nH]c4c5[n+](ccc4c3c2)-c2ccccc2C5=O)cc1.[Br-]	0.39	0.39	0.39	> 200	
CN[C@H](CC(C)C)C(=O)N[C@H]1C(=O)N[C@@H](CC(N)=O)C(=O)N[C@H]2C(=O)N[C@H]3C(=O)N[C@H](C(=O)N[C@H](C(=O)O)c4cc(O)cc(O)c4-c4cc3ccc4O)[C@H](O)c3ccc(c(Cl)c3)Oc3cc2cc(c3O[C@@H]2O[C@H](CO)[C@@H](O)[C@H](O)[C@H]2O[C@H]2C[C@](C)(N)[C@H](O)[C@H](C)O2)Oc2ccc(cc2Cl)[C@H]1O [VANCOMYCIN]				> 200	Activity [22]: inactive
CCCCCCc1ccc(NC(=O)c2ccc3[nH]c4c5[n+](ccc4c3c2)-c2ccccc2C5=O)cc1.[Br-]	25	0.78	6.25	> 200	
O=C(NC1CCCCC1)c1ccc2[nH]c3c4[n+](ccc3c2c1)-c1ccccc1C4=O.[Br-]	0.78	0.78	0.78	> 200	
CC(C)c1ccccc1NC(=O)c1ccc2[nH]c3c4[n+](ccc3c2c1)-c1ccccc1C4=O.[Br-]	12.5	6.25	50	> 200	
COc1cccc(NC(=O)c2ccc3[nH]c4c5[n+](ccc4c3c2)-c2ccccc2C5=O)c1.[Br-]	0.39	0.195	0.39	> 200	
CCCCCCCCNC(=O)c1ccc2[nH]c3c4[n+](ccc3c2c1)-c1ccccc1C4=O.[Br-]	0.098	0.098	0.39	> 200	Activity [1]: Active; Activity [23]: 2 log10CFU/ml; inhibition [7]: inactive; Activity [8]: Active; inhibition [9]: Active; Activity [10]: Active; inhibition [11]: Dose-Dependent Effect; inhibition [12]: Active; inhibition [13]: Dose-Dependent Effect; hemolysis at 1 h, 12.5 ug/ml [14]: 0%; viability at 24 h, 12.5 ug/ml [15]: 103%; viability at 24 h, 25 ug/ml [16]: 84.1%; viability at 24 h, 50 ug/ml [17]: 73.3%; inhibition [24]: Dose-Dependent Effect; inhibition at 0.012 µg/mL [25]: ~11.9%; inhibition at 0.024 µg/mL [26]: ~42.7%; inhibition at 0.049 µg/mL [27]: 82.6%
CCCCc1ccc(NC(=O)c2ccc3[nH]c4c5[n+](ccc4c3c2)-c2ccccc2C5=O)cc1.[Br-]	3.12	0.049	0.78	> 200	
CCCCCCCCc1ccc(NC(=O)c2ccc3[nH]c4c5[n+](ccc4c3c2)-c2ccccc2C5=O)cc1.[Br-]	25	25	25	> 200	
